From patent US10414811B2, “Protease-resistant lipidated GLP-1 analogs” (MEDIMMUNE LIMITED, priority 2015, dated 2019)
Read-outs that look alike come from different tables or passages of the source. Numbered stars: 1 amine (or outer) side, 2 acyl side, 3 side chain; on linkers, the order of the positions; unused ones are H or OH. Square brackets hold non-standard residues; d marks the D form. Side chains are listed from the residue outwards. Peptide text beside a SMILES is read from it. * marks the point of attachment. C18 diacid = O=C(O)CCCCCCCCCCCCCCCCC(=O)*; γGlu = O=C(O)[C@H](CCC(=O)[*:2])N[*:1]; Palmitoyl = CCCCCCCCCCCCCCCC(=O)*; αMeF = C[C@](N)(Cc1ccccc1)C(=O)O; αMeK = C[C@](N)(CCCCN)C(=O)O; αMeS = C[C@](N)(CO)C(=O)O; AEEA = NCCOCCOCC(=O)O; Aib = CC(C)(N)C(=O)O

Legend:
Type in all cases: cell-based
[1] = molecular target: T1, human glucagon receptor (GCGR) (Homo sapiens, UniProt P47871); assay: cAMP assay, human GCGR cells; conditions: cAMP assay
T1 construct: expressed in transfected cells
T1 sequence (P47871 26-477): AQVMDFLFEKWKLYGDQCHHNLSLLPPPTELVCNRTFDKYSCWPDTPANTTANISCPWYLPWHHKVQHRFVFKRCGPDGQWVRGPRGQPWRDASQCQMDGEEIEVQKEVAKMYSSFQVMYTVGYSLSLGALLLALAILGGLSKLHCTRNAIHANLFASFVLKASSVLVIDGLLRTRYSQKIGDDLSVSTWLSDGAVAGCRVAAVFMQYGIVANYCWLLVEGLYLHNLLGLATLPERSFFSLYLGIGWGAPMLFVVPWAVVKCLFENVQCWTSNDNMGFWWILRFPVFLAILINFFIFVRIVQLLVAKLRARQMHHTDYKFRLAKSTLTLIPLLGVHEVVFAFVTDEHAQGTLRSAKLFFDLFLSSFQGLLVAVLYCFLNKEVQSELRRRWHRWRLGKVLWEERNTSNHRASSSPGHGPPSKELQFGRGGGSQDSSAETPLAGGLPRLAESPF
How it was run: (§1)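 Peptide-stimulated cAMP measured by two-step HTRF after a 30 min room-temperature incubation with receptor-expressing cells (hGLP-1R, hGIPR at 1×10^5 cells/ml; hGCGR at 2×10^5 cells/ml). Duplicate dilutions; EC50 from 4-parameter logistic fit of % Delta F.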

[2] = molecular target: T2, human glucose-dependent insulinotropic peptide receptor (GIPR) (Homo sapiens, UniProt P48546); assay: cAMP assay, human GIPR cells; conditions: cAMP assay
T2 construct: expressed in transfected cells
T2 sequence (P48546 22-466): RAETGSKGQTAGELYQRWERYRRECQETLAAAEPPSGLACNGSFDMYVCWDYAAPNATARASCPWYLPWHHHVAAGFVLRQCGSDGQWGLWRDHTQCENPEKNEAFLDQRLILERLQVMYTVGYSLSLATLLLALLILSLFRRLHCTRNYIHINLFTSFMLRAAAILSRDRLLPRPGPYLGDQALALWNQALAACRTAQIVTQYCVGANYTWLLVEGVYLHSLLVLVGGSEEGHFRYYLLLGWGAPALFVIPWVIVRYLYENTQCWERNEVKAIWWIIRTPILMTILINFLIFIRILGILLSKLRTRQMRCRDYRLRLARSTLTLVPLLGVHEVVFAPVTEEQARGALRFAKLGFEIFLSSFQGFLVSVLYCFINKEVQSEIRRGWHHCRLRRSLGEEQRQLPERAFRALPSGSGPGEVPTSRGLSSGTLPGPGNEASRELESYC
How it was run: as §1

GLP-1R (INS1e assay) = molecular target: T3, GLP-1R (INS1e assay) (Rattus norvegicus, UniProt P32301); assay: INS1e assay, cAMP activity at GLP-1R; conditions: mono-lipidated peptides
T3 construct: endogenous in cells; host or cells: INS-1E cells
T3 sequence (P32301 22-463): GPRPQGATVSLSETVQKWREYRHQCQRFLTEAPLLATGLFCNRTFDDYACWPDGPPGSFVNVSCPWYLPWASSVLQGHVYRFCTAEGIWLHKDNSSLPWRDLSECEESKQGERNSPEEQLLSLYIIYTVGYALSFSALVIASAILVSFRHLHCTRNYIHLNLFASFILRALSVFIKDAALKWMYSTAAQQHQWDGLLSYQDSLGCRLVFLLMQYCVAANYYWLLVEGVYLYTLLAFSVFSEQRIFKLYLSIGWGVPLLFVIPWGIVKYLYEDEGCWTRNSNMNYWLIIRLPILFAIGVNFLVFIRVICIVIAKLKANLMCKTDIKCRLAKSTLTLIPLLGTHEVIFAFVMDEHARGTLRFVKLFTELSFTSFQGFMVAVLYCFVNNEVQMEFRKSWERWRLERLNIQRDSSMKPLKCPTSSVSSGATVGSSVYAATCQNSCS
Experimental: cAMP levels are measured using a commercially available cAMP dynamic 2 HTRF kit (Cisbio, Cat #62AM4PEJ), following the two step protocol as per manufacturer's recommendations. In brief; anti-cAMP cryptate (donor fluorophore) and cAMP-d2 (acceptor fluorophore) are made up separately by diluting each 1/20 in conjugate & lysis buffer provided in the kit. 5 μL anti-cAMP cryptate is added to wells of the assay plate, and 5 μL cAMP-d2 is added to wells except non-specific binding (NSB) wells, to which conjugate and lysis buffer are added. […] EC50 values of the synthetic peptides determined in cAMP assays are then determined.

[3] = first determination (n1), read-out: Primary assay EC50 Gluc-R (n1)
[4] = second determination (n2), read-out: Primary assay EC50 Gluc-R (n2)
[5] = first determination (n1), read-out: Primary assay EC50 GIP-R (n1)
[6] = second determination (n2), read-out: Primary assay EC50 GIP-R (n2)
[7] = mean of n1 and n2, read-out: INS1e assay EC50 Mean pM GLP-1R
[8] = replicate n1, read-out: INS1e assay EC50 GLP-1R n1
[9] = replicate n2, read-out: INS1e assay EC50 GLP-1R n2

SMILES	EC50 [1, 3] [nM]	EC50 [1, 4] [nM]	EC50 [2, 5] [nM]	EC50 [2, 6] [nM]	EC50 (GLP-1R (INS1e assay); [7]) [pM]	EC50 (GLP-1R (INS1e assay); [8]) [pM]	EC50 (GLP-1R (INS1e assay); [9]) [pM]
CCCCCCCCCCCCCCCCCC(=O)NCCOCCOCC(=O)NCCOCCOCC(=O)NCCOCCOCC(=O)NCCCC[C@H](NC(=O)[C@H](C)NC(=O)[C@H](C)NC(=O)[C@H](CCC(=O)O)NC(=O)CNC(=O)[C@H](CCC(=O)O)NC(=O)[C@H](CC(C)C)NC(=O)[C@](C)(Cc1ccccc1)NC(=O)[C@H](CO)NC(=O)[C@](C)(CO)NC(=O)[C@@H](NC(=O)[C@H](CC(=O)O)NC(=O)[C@H](CO)NC(=O)[C@@H](NC(=O)[C@](C)(Cc1ccccc1)NC(=O)[C@H](CO)NC(=O)CNC(=O)[C@H](CCC(=O)O)NC(=O)C(C)(C)NC(=O)[C@@H](N)Cc1c[nH]cn1)[C@@H](C)O)C(C)C)C(=O)N[C@@H](CCC(=O)O)C(=O)N[C@@H](Cc1ccccc1)C(=O)N[C@H](C(=O)N[C@@H](C)C(=O)N[C@@](C)(Cc1ccccc1)C(=O)N[C@H](C(=O)N[C@H](C(=O)N[C@@](C)(CCCCN)C(=O)NCC(=O)NCC(N)=O)C(C)C)C(C)C)[C@@H](C)CC [compound 54]	≥ 26	≥ 26	≥ 26	≥ 26	6	2.67	8.37
CCCCCCCCCCCCCCCC(=O)N[C@@H](CCC(=O)NCCCC[C@H](NC(=O)[C@H](CCC(=O)O)NC(=O)[C@H](CC(C)C)NC(=O)[C@](C)(Cc1ccccc1)NC(=O)[C@H](CO)NC(=O)[C@](C)(CO)NC(=O)[C@@H](NC(=O)[C@H](CC(=O)O)NC(=O)[C@H](CO)NC(=O)[C@@H](NC(=O)[C@](C)(Cc1ccccc1)NC(=O)[C@H](CO)NC(=O)CNC(=O)[C@H](CCC(=O)O)NC(=O)C(C)(C)NC(=O)[C@@H](N)Cc1c[nH]cn1)[C@@H](C)O)C(C)C)C(=O)N[C@@H](CCC(=O)O)C(=O)N[C@@H](C)C(=O)N[C@@H](C)C(=O)N[C@@](C)(CCCCN)C(=O)N[C@@H](CCC(=O)O)C(=O)N[C@@](C)(Cc1ccccc1)C(=O)N[C@H](C(=O)N[C@@H](C)C(=O)N[C@@](C)(Cc1ccccc1)C(=O)N[C@H](C(=O)N[C@H](C(=O)N[C@@](C)(CCCCN)C(=O)NCC(=O)NCC(N)=O)C(C)C)C(C)C)[C@@H](C)CC)C(=O)O [compound 84] (H-H[Aib]EGS[αMeF]TSDV[αMeS]S[αMeF]LEK([γGlu-Palmitoyl])EAA[αMeK]E[αMeF]IA[αMeF]VV[αMeK]GG-NH2)	≥ 27	≥ 27	≥ 27	≥ 27	560	455	665
CCCCCCCCCCCCCCCC(=O)N[C@@H](CCC(=O)NCCCC[C@H](NC(=O)[C@H](CC(=O)O)NC(=O)[C@H](CO)NC(=O)[C@@H](NC(=O)[C@](C)(Cc1ccccc1)NC(=O)[C@H](CO)NC(=O)CNC(=O)[C@H](CCC(=O)O)NC(=O)C(C)(C)NC(=O)[C@@H](N)Cc1c[nH]cn1)[C@@H](C)O)C(=O)N[C@@](C)(CO)C(=O)N[C@@H](CO)C(=O)N[C@@](C)(Cc1ccccc1)C(=O)N[C@@H](CC(C)C)C(=O)N[C@@H](CCC(=O)O)C(=O)NCC(=O)N[C@@H](CCC(=O)O)C(=O)N[C@@H](C)C(=O)N[C@@H](C)C(=O)N[C@@](C)(CCCCN)C(=O)N[C@@H](CCC(=O)O)C(=O)N[C@@](C)(Cc1ccccc1)C(=O)N[C@H](C(=O)N[C@@H](C)C(=O)N[C@@](C)(Cc1ccccc1)C(=O)N[C@H](C(=O)N[C@H](C(=O)N[C@@](C)(CCCCN)C(=O)NCC(=O)NCC(N)=O)C(C)C)C(C)C)[C@@H](C)CC)C(=O)O [compound 90] (H-H[Aib]EGS[αMeF]TSDK([γGlu-Palmitoyl])[αMeS]S[αMeF]LEGEAA[αMeK]E[αMeF]IA[αMeF]VV[αMeK]GG-NH2)	≥ 28	≥ 28	≥ 28	≥ 28	51	43.4	58.6

Continued, values first:

EC50 [1, 3] [nM]	EC50 [1, 4] [nM]	EC50 [2, 5] [nM]	EC50 [2, 6] [nM]	EC50 (GLP-1R (INS1e assay); [7]) [pM]	EC50 (GLP-1R (INS1e assay); [8]) [pM]	EC50 (GLP-1R (INS1e assay); [9]) [pM]	SMILES
≥ 26	≥ 25.6	≥ 26	≥ 25.6	6330	8350	4320	CC[C@H](C)[C@H](NC(=O)[C@](C)(Cc1ccccc1)NC(=O)[C@H](CCC(=O)O)NC(=O)[C@H](CCCCNC(=O)COCCOCCNC(=O)COCCOCCNC(=O)CC[C@H](NC(=O)CCCCCCCCCCCCCCC(=O)O)C(=O)O)NC(=O)[C@H](C)NC(=O)[C@H](C)NC(=O)[C@H](CCC(=O)O)NC(=O)CNC(=O)[C@H](CCC(=O)O)NC(=O)[C@H](CC(C)C)NC(=O)[C@](C)(Cc1ccccc1)NC(=O)[C@H](CO)NC(=O)[C@](C)(CO)NC(=O)[C@@H](NC(=O)[C@H](CC(=O)O)NC(=O)[C@H](CO)NC(=O)[C@@H](NC(=O)[C@](C)(Cc1ccccc1)NC(=O)[C@H](CO)NC(=O)CNC(=O)[C@H](CCC(=O)O)NC(=O)C(C)(C)NC(=O)[C@@H](N)Cc1c[nH]cn1)[C@@H](C)O)C(C)C)C(=O)N[C@@H](C)C(=O)N[C@@](C)(Cc1ccccc1)C(=O)N[C@H](C(=O)N[C@H](C(=O)N[C@@](C)(CCCCN)C(=O)NCC(=O)NCC(N)=O)C(C)C)C(C)C [compound 109]
≥ 25	≥ 25	≥ 25	≥ 25	27400	31600	23100	CC[C@H](C)[C@H](NC(=O)[C@](C)(Cc1ccccc1)NC(=O)[C@H](CCC(=O)O)NC(=O)[C@](C)(CCCCN)NC(=O)[C@H](CCCCNC(=O)COCCOCCNC(=O)COCCOCCNC(=O)CC[C@H](NC(=O)CCCCCCCCCCCCCCCCC(=O)O)C(=O)O)NC(=O)[C@H](C)NC(=O)[C@H](CCC(=O)O)NC(=O)CNC(=O)[C@H](CCC(=O)O)NC(=O)[C@H](CC(C)C)NC(=O)[C@](C)(Cc1ccccc1)NC(=O)[C@H](CO)NC(=O)[C@](C)(CO)NC(=O)[C@@H](NC(=O)[C@H](CC(=O)O)NC(=O)[C@H](CO)NC(=O)[C@@H](NC(=O)[C@](C)(Cc1ccccc1)NC(=O)[C@H](CO)NC(=O)CNC(=O)[C@H](CCC(=O)O)NC(=O)C(C)(C)NC(=O)[C@@H](N)Cc1c[nH]cn1)[C@@H](C)O)C(C)C)C(=O)N[C@@H](C)C(=O)N[C@@](C)(Cc1ccccc1)C(=O)N[C@H](C(=O)N[C@H](C(=O)N[C@@](C)(CCCCN)C(=O)NCC(=O)NCC(N)=O)C(C)C)C(C)C [compound 110] (H-H[Aib]EGS[αMeF]TSDV[αMeS]S[αMeF]LEGEAK([AEEA-AEEA-γGlu-C18 diacid])[αMeK]E[αMeF]IA[αMeF]VV[αMeK]GG-NH2; N-terminus assumed)
≥ 25	≥ 24.9	≥ 25	≥ 24.9	1040	823	1260	CC[C@H](C)[C@H](NC(=O)[C@](C)(Cc1ccccc1)NC(=O)[C@H](CCC(=O)O)NC(=O)[C@](C)(CCCCN)NC(=O)[C@H](C)NC(=O)[C@H](C)NC(=O)[C@H](CCC(=O)O)NC(=O)[C@H](CCCCNC(=O)COCCOCCNC(=O)COCCOCCNC(=O)CC[C@H](NC(=O)CCCCCCCCCCCCCCCCC(=O)O)C(=O)O)NC(=O)[C@H](CCC(=O)O)NC(=O)[C@H](CC(C)C)NC(=O)[C@](C)(Cc1ccccc1)NC(=O)[C@H](CO)NC(=O)[C@](C)(CO)NC(=O)[C@@H](NC(=O)[C@H](CC(=O)O)NC(=O)[C@H](CO)NC(=O)[C@@H](NC(=O)[C@](C)(Cc1ccccc1)NC(=O)[C@H](CO)NC(=O)CNC(=O)[C@H](CCC(=O)O)NC(=O)C(C)(C)NC(=O)[C@@H](N)Cc1c[nH]cn1)[C@@H](C)O)C(C)C)C(=O)N[C@@H](C)C(=O)N[C@@](C)(Cc1ccccc1)C(=O)N[C@H](C(=O)N[C@H](C(=O)N[C@@](C)(CCCCN)C(=O)NCC(=O)NCC(N)=O)C(C)C)C(C)C [compound 113] (H-H[Aib]EGS[αMeF]TSDV[αMeS]S[αMeF]LEK([AEEA-AEEA-γGlu-C18 diacid])EAA[αMeK]E[αMeF]IA[αMeF]VV[αMeK]GG-NH2; N-terminus assumed)
